Assay results taken from patent publication US20160129033A1, “COMBINATION OF RO5503781 AND CAPECITABINE FOR CANCER THERAPY” (HOFFMANN-LA ROCHE INC., priority 2013, published 2016).

Tested on: LoVo cell line
Assay: Tumor growth inhibition and survival (ILS) in mice implanted with LoVo cell line
Type: in vivo
Text: The LoVo cell line was selected for implantation in mice as it is a p53 wildtype cell line that lacks MDM2 amplification or overexpression and therefore is felt to be more reflective of clinical reality of the colorectal cancer patient population of interest.
The following treatment groups were used in the study
Efficacy data was graphically represented as the mean tumor volume±standard error of the mean (SEM). In addition, tumor volumes of treated groups were presented as percentages of tumor volumes of the control groups (% T/C), using the formula: 100×((T-T0)/(C-C0)), where T represented mean tumor volume of a treated group on a specific day during the experiment, T0 represented mean tumor volume of the same treated group on the first day of treatment; C represented mean tumor volume of a control group on the specific day during the experiment, and C0 represented mean tumor volume of the same treated group on the first day of treatment.
Tumor volume (in cubic millimeters) was calculated using the ellipsoid formula: (D×(d^2))/2, where “D” represents the large diameter of the tumor and “d” represents the small diameter. In some cases, tumor regression and/or percent change in tumor volume was calculated using the formula: ((T-T0)/T0)×100, where ‘T’ represents mean tumor volume of the treated group at a particular day, and ‘T0’ represents mean tumor volume of the same treated group at initiation of treatment.
Statistical analysis was determined by the rank sum test and One Way Anova and a post-hoc Bonferroni t-test (SigmaStat, version 2.0, Jandel Scientific, San Francisco, Calif., USA). Differences between groups were considered to be significant when the probability value (p) was ≦0.05.
For survival assessment, the percent of increased life space (ILS) was calculated as: 100×[(median survival day of treated group−median survival day of control group)/median survival day of control group]. Median survival was determined utilizing Kaplan Meier survival analysis. Survival in treated groups was statistically compared with the vehicle group and survival comparisons were done between groups using the log-rank test (Graph Pad Prism, La Jolla, Calif., USA). Differences between groups were considered significant when the probability value (p) was ≦0.05.

[1] = Capecitabine 200 mg/kg qd × 14 po
[2] = Capecitabine 400 mg/kg qd × 14 po

Compound | % Increased Life Span (ILS) [1] [%] | Mean Tumor Volume [1] [cubic millimeters] | % Inhibition (EOS) (TGI) [1] [%] | % T/C (EOS) [1] [%] | % Increased Life Span (ILS) [2] [%] | Mean Tumor Volume [2] [cubic millimeters] | % Inhibition (EOS) (TGI) [2] [%] | % T/C (EOS) [2] [%] | % Increased Life Span (ILS) (Cpd. A 80 mg/kg qd × 5 po) [%] | Mean Tumor Volume (Cpd. A 80 mg/kg qd × 5 po) [cubic millimeters] | % Inhibition (EOS) (TGI) (Cpd. A 80 mg/kg qd × 5 po) [%] | % T/C (EOS) (Cpd. A 80 mg/kg qd × 5 po) [%] | % Increased Life Span (ILS) (Cpd. A 100 mg/kg qweekly×3 po) [%] | Mean Tumor Volume (Cpd. A 100 mg/kg qweekly×3 po) [cubic millimeters] | % Inhibition (EOS) (TGI) (Cpd. A 100 mg/kg qweekly×3 po) [%] | % T/C (EOS) (Cpd. A 100 mg/kg qweekly×3 po) [%]
CCCCCOC(=O)Nc1nc(=O)n([C@@H]2O[C@H](C)[C@@H](O)[C@H]2O)cc1F [Capecitabine, 5′-deoxy-5-fluoro-N-[(pentyloxy)-carbonyl]-cytidine] | 40 | 130.14 | 72 | 28 | 49 | 130.66 | 88 | 12 | – | – | – | – | – | – | – | –
COc1cc(C(=O)O)ccc1NC(=O)[C@@H]1N[C@@H](CC(C)(C)C)[C@](C#N)(c2ccc(Cl)cc2F)[C@H]1c1cccc(Cl)c1F [Compound A, 4-{[(2R,3S,4R,5S)-4-(4-Chloro-2-fluoro-phenyl)-3-(3-chloro-2-fluoro-phenyl)-4-cyano-5-(2,2-dimethyl-propyl)-pyrrolidine-2-carbonyl]-amino}-3-methoxy-benzoic acid] | – | – | – | – | – | – | – | – | 23 | 130.39 | 62 | 38 | 17 | 130.11 | 55 | 45
